“And” between values parts separate entries of the source, which are not always exact repeats. Equal entries are not always repeated.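 Following 48 hours of exposure in 96-well plates, responses at five concentrations were used to interpolate endpoints linearly. The concentration for 50% growth inhibition is given as GI50. The concentration for full growth arrest is given as TGI.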
What was measured:
Test in all cases: NCI anticancer screen, dose series, 48 h
MDA-MB-231 breast = system: MDA-MB-231 breast
SR leukemia = system: SR leukemia
HS 578T breast = system: HS 578T breast
T-47D breast = system: T-47D breast
PC-3 prostate = system: PC-3 prostate
MOLT-4 leukemia = system: MOLT-4 leukemia
NCI-H226 lung = system: NCI-H226 lung
OVCAR-3 ovarian = system: OVCAR-3 ovarian
U251 CNS = system: U251 CNS
A549 NSCLC = system: A549 NSCLC
MDA-MB-435 = system: MDA-MB-435
KM12 colon = system: KM12 colon
SK-MEL-5 melanoma = system: SK-MEL-5 melanoma
A498 renal = system: A498 renal
NCI-H522 lung = system: NCI-H522 lung
HCT-15 colon = system: HCT-15 colon
K-562 leukemia = system: K-562 leukemia
NCI/ADR-RES ovarian = system: NCI/ADR-RES ovarian
SF-295 CNS = system: SF-295 CNS
IGROV1 ovarian = system: IGROV1 ovarian
COLO 205 colon = system: COLO 205 colon
786-0 renal = system: 786-0 renal
NCI-H23 lung = system: NCI-H23 lung
SF-539 CNS = system: SF-539 CNS
SK-OV-3 ovarian = system: SK-OV-3 ovarian
OVCAR-4 ovarian = system: OVCAR-4 ovarian
LOX IMVI melanoma = system: LOX IMVI melanoma
MALME-3M melanoma = system: MALME-3M melanoma
MCF7 breast = system: MCF7 breast

CCS(=O)(=O)c1cccc(-c2cc(C(=O)NC3CCN(C)CC3)c(C)c3[nH]c4ncc(C)cc4c23)c1
GI50 (MDA-MB-231 breast): 232 nM and 196 nM | TGI (MDA-MB-231 breast): > 5150 nM and 4900 nM | GI50 (SR leukemia): 68.2 nM and < 24.6 nM | TGI (SR leukemia): 2140 nM and 1580 nM | GI50 (HS 578T breast): 275 nM and 109 nM | TGI (HS 578T breast): 2600 nM and 424 nM | GI50 (T-47D breast): 277 nM and 204 nM | TGI (T-47D breast): 4120 nM and 3160 nM | GI50 (PC-3 prostate): 374 nM and 104 nM | TGI (PC-3 prostate): 5850 nM and 4710 nM | GI50 (MOLT-4 leukemia): 316 nM and 237 nM | TGI (MOLT-4 leukemia): > 6380 nM and 3140 nM | GI50 (NCI-H226 lung): 372 nM and 714 nM | TGI (NCI-H226 lung): 3830 nM and 5200 nM | GI50 (OVCAR-3 ovarian): 336 nM and 232 nM | TGI (OVCAR-3 ovarian): 2480 nM and 1410 nM | GI50 (U251 CNS): 537 nM and 316 nM | TGI (U251 CNS): 5160 nM and 2350 nM | GI50 (A549 NSCLC): 490 nM and 169 nM | TGI (A549 NSCLC): 4120 nM and 3790 nM | GI50 (MDA-MB-435): 722 nM and 304 nM | TGI (MDA-MB-435): > 10000 nM and 4540 nM | GI50 (KM12 colon): 95.4 nM and 47.8 nM | TGI (KM12 colon): 1510 nM and 1860 nM | GI50 (SK-MEL-5 melanoma): 2290 nM and 798 nM | TGI (SK-MEL-5 melanoma): > 9220 nM and 2650 nM | GI50 (A498 renal): 453 nM and 124 nM | TGI (A498 renal): 1650 nM and 790 nM | GI50 (NCI-H522 lung): 148 nM and 164 nM | TGI (NCI-H522 lung): 2270 nM and 1680 nM | GI50 (HCT-15 colon): 13600 nM | TGI (HCT-15 colon): > 10000 nM and 45800 nM | GI50 (K-562 leukemia): 210 nM and 90 nM | TGI (K-562 leukemia): > 10000 nM and 11000 nM | GI50 (NCI/ADR-RES ovarian): 44900 nM | TGI (NCI/ADR-RES ovarian): > 100000 nM | GI50 (SF-295 CNS): 1080 nM and 832 nM | TGI (SF-295 CNS): > 10000 nM and 5630 nM | GI50 (IGROV1 ovarian): 179 nM and 111 nM | TGI (IGROV1 ovarian): 1760 nM and 2550 nM | GI50 (COLO 205 colon): 92.3 nM and 31.8 nM | GI50 (786-0 renal): 1680 nM and 1320 nM | TGI (786-0 renal): > 8050 nM and 4700 nM | GI50 (NCI-H23 lung): 483 nM and 322 nM | TGI (NCI-H23 lung): 5230 nM and 3750 nM | GI50 (SF-539 CNS): 329 nM and 239 nM | TGI (SF-539 CNS): 1920 nM and 1390 nM | GI50 (SK-OV-3 ovarian): 624 nM and 771 nM | TGI (SK-OV-3 ovarian): 4310 nM and 7310 nM | GI50 (OVCAR-4 ovarian): 1040 nM and 249 nM | TGI (OVCAR-4 ovarian): > 7710 nM and 4390 nM | GI50 (LOX IMVI melanoma): 168 nM and 160 nM | TGI (LOX IMVI melanoma): 1220 nM and 747 nM | GI50 (MALME-3M melanoma): 843 nM and 571 nM | TGI (MALME-3M melanoma): 4130 nM and 3220 nM | GI50 (MCF7 breast): 105 nM and 63.1 nM | TGI (MCF7 breast): 4270 nM and 5960 nM
